From the NIST ThermoML archive (doi:10.1016/j.fluid.2014.05.021)
Numbers after ± are expanded uncertainties.

Settings: 101.33 kPa, Liquid, Vibrating tube method

Compound	mass density (278.15 K)	mass density (283.15 K)	mass density (288.15 K)	mass density (293.15 K)	mass density (298.15 K)	mass density (303.15 K)	mass density (308.15 K)	mass density (313.15 K)	mass density (318.15 K)	mass density (323.15 K)	mass density (328.15 K)	mass density (333.15 K)	mass density (338.15 K)	mass density (343.15 K)	mass density (348.15 K)	mass density (353.15 K)
CCC[N+](C)(C)CC.O=S(=O)([N-]S(=O)(=O)C(F)(F)F)C(F)(F)F	1420.02 ± 0.63 kg/m3	1415.26 ± 0.62 kg/m3	1410.6 ± 0.62 kg/m3	1405.96 ± 0.61 kg/m3	1401.26 ± 0.61 kg/m3	1396.46 ± 0.6 kg/m3	1391.81 ± 0.6 kg/m3	1387.91 ± 0.59 kg/m3	1383.36 ± 0.59 kg/m3	1379.82 ± 0.58 kg/m3	1375.4 ± 0.6 kg/m3	1370.97 ± 0.58 kg/m3	1366.49 ± 0.58 kg/m3	1361.67 ± 0.57 kg/m3	1357.66 ± 0.56 kg/m3	1353.3 ± 0.56 kg/m3
CCN(CC)c1c(N(CC)CC)[c+]1N(CC)CC.N#C[N-]C#N [1,2,3-tris(diethylamino)-cyclopropenylium dicyanoamide]	1016.38 ± 1.9 kg/m3	1013.27 ± 1.9 kg/m3	1010.14 ± 1.9 kg/m3	1007 ± 1.9 kg/m3	1003.91 ± 1.9 kg/m3	1000.79 ± 1.9 kg/m3	997.7 ± 1.9 kg/m3	994.62 ± 1.9 kg/m3	991.55 ± 1.9 kg/m3	988.5 ± 1.9 kg/m3	985.46 ± 1.8 kg/m3	982.43 ± 1.8 kg/m3	979.41 ± 1.8 kg/m3	976.41 ± 1.8 kg/m3	973.4 ± 1.8 kg/m3	970.42 ± 1.8 kg/m3
